Patent US12280029B2, “Methods of treatment of inflammation related conditions using pluripotent anti-inflammatory and metabolic modulators” (INSTITUT PASTEUR DE MONTEVIDEO, priority 2016, dated 2025)

Experiments:
[1] = Adduct formation of SANA with β-mercaptoethanol, followed spectrophotometrically (UV-visible); format: physicochemical; details: pH 7.4, BME 1 mM, scans every min up to 15 min
Method: (§1) UV-visible spectra was acquired by a Varian Cary 50 Bio. Scans were taken every min up to 15 min.

[2] = Adduct formation of SANA with glutathione, followed spectrophotometrically (UV-visible); format: physicochemical; details: pH 7.4, GSH 1 mM, scans every min up to 15 min
Method: as §1

[3] = Stopped-flow kinetic measurement of the reaction with BME; format: physicochemical; details: 25 μM, BME 0.54-2.73 mM, absorbance at 260 nm, 25° C., triplicate, slope of pseudo first order constants vs BME
Method: In FIG. 2, it is shown that the reaction between SANA and BME was determined to be a second order rate constant. Stopped-flow kinetic measurements were performed using an Rx 2000 stopped flow analyzer (Applied Photophysics). Mixtures of 1.50 μL […] (25 μM) and solutions of BME at 0.54 mM, 1.09 mM, 1.64 mM, 2.18 mM, and 2.73 mM concentrations.
The reaction was monitored by following the absorbance at 260 nm and plots were fitted to a simple exponential decay function using Originlab software (version 8.0.). The observed pseudo first order constant at each concentration of BME was extracted from the equation and plotted against the concentration of BME. The second rate constant of the reaction is derived from the slope of the curve and was 182±6 M^−1s^−1. All experiments were carried out at 25° C. by triplicate.

[4] = tested on: NF-κB/p65 in THP-1 macrophages; assay: LPS-induced NF-κB/p65 subcellular localization, immunofluorescence and epifluorescence microscopy; format: cell-based, human
Description: Nuclear factor kappa B (NF-κB) represents a family of pro-inflammatory transcription factors, present in all eukaryotic cells, which regulate inducible expression of wide ranging genes involved in immune responses and cell-cycle regulation. Activation of NF-κB is accompanied by nuclear translocation of NF-κB. […] Specifically, FIG. 3 illustrates immunofluorescence and epifluorescence microscopy analysis showing the effect of SANA on LPS-induced NF-κB/p65 subcellular localization in THP-1 macrophages.

[5] = tested on: NF-kB-dependent gene expression in THP-1 cells differentiated into macrophages; assay: NF-kB-dependent gene expression in human macrophages (qPCR); format: cell-based; details: 100 and 200 uM for 2 hours, then LPS (3 hours)
Method: THP-1 cells were differentiated into macrophages. Cells were then treated with SANA (100 and 200 uM) or Salicylic acid (SA: 100 and 200 uM) for 2 hours. Cells were then stimulated with LPS (1 mg/mL, 3 hours) mRNA was extracted and IL-6, TNF-a and MCP-1 fold change gene expression over control were quantified by qPCR.

[6] = tested on: Nrf2/Keap1-dependent gene expression in Hep G2 cells; assay: Phase two enzymes Nrf2/Keap1-dependent gene expression (qPCR); format: cell-based; details: Hep G2, five hours, SANA 0.1 mM, Salicylic Acid 0.2. and 5 mM
Method: FIGS. 6 and 7 show induction of phase two enzymes Nrf2/Keap1-dependent gene expression by SANA but not by SA. Hep G2 cells were treated with SANA (0.1 mM) or Salicylic Acid (0.2. and 5 mM) for five hours. mRNA was extracted from the cells and was measured HO-1, GCLM and NQO1 gene expression by qPCR.

[7] = tested on: inflammasome in THP-1 cells differentiated into macrophages; assay: Inflammasome inhibition in THP-1 macrophages (LPS + ATP, IL-1b ELISA); format: cell-based, human; details: for inhibition of the inflammasome (IL-1b secretion), applied with the second signal: LPS (250 ng/mL, 3 hs.), then together with ATP (5 mM, 45 minutes), SANA 0.05, 0.125 and 0.25 mM, Salicylic acid 0.25 mM; for inhibition of the inflammasome (IL-1b secretion), applied with the first signal: together with LPS (250 ng/mL, 3 hs.), then ATP (5 mM, 45 minutes), SANA 0.05, 0.125 and 0.25, Salicylic acid 0.2.5 mM
Method: In FIGS. 8 and 9 show the inhibition of inflammasome in THP-1 cells differentiated into macrophages (PMA 200 nM, 48 hs.) by SAMA but not by SA when applied together with the first (FIG. 8) or the second (FIG. 9) signal. In FIG. 8 cells were treated with Salicylic acid (0.2.5 mM) or SANA (0.05; 0.125 and 0.25) together with LPS stimulation. The cells were stimulated with LPS (250 ng/mL, 3 hs.) and then with ATP (5 mM, 45 minutes). Supernatant was collected and IL-1b measured by ELISA. Cell viability was assessed by MTT assay. […] In FIG. 9 THP-1 cells were differentiated into macrophages with PMA (200 nM, 48 hs.). Cells were stimulated with LPS (250 ng/mL, 3 hs.) and then with ATP (5 mM, 45 minutes), Together with ATP treatment, cells were then treated with […] (10 uM), Salicylic acid (0.25 mM) or SANA (0.05; 0.125 and 0.25 mM). Supernatant was collected and IL-1b secretion was measured by ELISA. Cell viability was assessed by the MTT assay.

[8] = tested on: Il-1b secretion into the peritoneum; assay: LPS-induced Il-1b secretion into the peritoneum in vivo
HFD-induced obese mice = assay: Insulin resistance in HFD-induced obese mice (glucose tolerance test); format: in vivo; details: 100 mg/kg gavage every day during four weeks
Method: Mice under RFD for up to 7 months (mean weight around 40 gr.) were treated with SANA (100 mg/kg; gavage) or phosphate buffer (control) every day during four weeks. The glucose tolerance test were run as per well-known standard procedures.

GAPDH = GAPDH (Homo sapiens, UniProt P04406); assay: GAPDH activity; format: biochemical
GAPDH, sequence (P04406 whole entry, species assumed): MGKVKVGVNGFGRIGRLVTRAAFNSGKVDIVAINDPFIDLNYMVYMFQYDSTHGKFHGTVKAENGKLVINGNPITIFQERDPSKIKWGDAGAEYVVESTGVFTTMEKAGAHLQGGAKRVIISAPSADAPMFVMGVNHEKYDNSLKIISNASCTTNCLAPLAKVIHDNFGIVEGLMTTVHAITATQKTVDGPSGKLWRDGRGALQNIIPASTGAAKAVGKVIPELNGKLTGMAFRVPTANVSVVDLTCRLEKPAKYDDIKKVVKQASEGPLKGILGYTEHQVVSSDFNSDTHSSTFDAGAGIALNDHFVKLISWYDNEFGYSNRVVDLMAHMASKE

[9] = tested on: skin allograft, C57BL/6 female mice grafted with skin of C57BL/6 male mice; assay: Skin allograft rejection in mice; format: in vivo; details: from one day before until 15 days after transplantation
Method: C57BL/6 female mice were grafted with skin from the tails of C57BL/6 male mice. The skin graft is a small square (1 cm^2) and it was implanted onto the left subscapular region of the female mice. From one day before the transplantation until 15 days after it, the mice were treated daily with SANA. (1.00 mg/kg, by oral gavage; SANA group) or vehicle (Control group). The vehicle used was a solution of Carboxy-Methyl-cellulose 0.5% m/v and Tween 80 0.5% v/v. At the end of the 15th day of administration, allografts were checked every 48/72 hours to assess the condition of the grafted skin. Rejection was diagnosed clinically when the allograft lost more than 50% of its size and/or more than 10% of allograft was necrotic. […] The study followed the protocol described above for FIG. 1, but further included a Salicylate group. C57BL/6 female mice were grafted with skin from the tails of C57BL/6 male mice. The skin graft is a small square (1 cm^2) and it was implanted onto the left subscapular region of the female mice. From one day before the transplantation until 15 days after it, the mice were treated daily with Salicylate (100 mg/kg, by oral gavage; Salicylate group), SANA (100 mg/kg, by oral gavage; SANA group) or vehicle (Control group). The vehicle used was a solution of Carboxy-Methyl-cellulose 0.5% m/v and Tween 80 0.5% v/v. […]

Row | SMILES | adduct formation with BME (increase of absorption at 360 nm) [1] | adduct formation with GSH (increase of absorption at 360 nm) [2] | second rate constant of the reaction with BME [3] [M⁻¹ s⁻¹] | LPS-induced NF-κB/p65 nuclear translocation ([4]; 0.1 mM, 2 hs before activation with LPS (1 ug/mL)) | potency relative to salicylic acid on NF-κB/p65 localization ([4]; SANA 0.1 mM vs salicylic acid 1 mM) | inhibition of NF-kB-dependent gene expression (IL-6, TNF-a and MCP-1 mRNA fold change over control) [5] | induction of Nrf2/Keap1-dependent gene expression (HO-1, GCLM and NQO1) [6] | inhibition of the inflammasome (IL-1b secretion), applied with the second signal [7] | inhibition of the inflammasome (IL-1b secretion), applied with the first signal [7] | LPS-induced Il-1b secretion into the peritoneum [8] | insulin resistance (glucose tolerance test) (HFD-induced obese mice) | inhibition of GAPDH activity (GAPDH) | survival of grafted skin vs control group ([9]; 1.00 mg/kg by oral gavage daily) | skin allograft rejection vs salicylic acid ([9]; 100 mg/kg by oral gavage daily, Salicylate 100 mg/kg) | LPS-induced NF-κB/p65 subcellular localization, effect compared with SANA 0.1 mM ([4]; 1 mM, LPS (1 ug/mL))
1 | O=C(O)c1cc(/C=C/[N+](=O)[O-])ccc1O [SANA, 2-hydroxy-5-(2-nitroethenyl)benzoic acid] | adduct formation | adduct formation | 182 ± 6 | lack of nuclear translocation of NF-κB | significantly more potent than salicylic acid | inhibition of NF-kB-dependent gene expression | induction | potent inhibitor of the inflammasome | potent inhibitor of the inflammasome | decreases | reverses insulin resistance | does not inhibit GAPDH activity | prolonged survival of grafted skin as compared to a control group | significant reduction in skin allograft rejection compared to salicylic acid | 
2 | O=C(O)c1ccccc1O [salicylic acid, reference compound] |  |  |  |  |  | not able to inhibit NF-kB dependent gene expression | not by SA | cannot inhibit | cannot inhibit |  |  |  |  |  | the same effect
